Reference: PMC6696115, “Characterization of Antimicrobial, Antioxidant, and Leishmanicidal Activities of Schiff Base Derivatives of 4-Aminoantipyrine” (Molecules, 2019)
Values after ≈ are worked out from the molar mass of the structure shown. Where two headings read alike, the source gives them in different places.

Key:
[1] = test system: promastigotes from L. mexicana (M379); experiment: leishmanicidal activity, MTT colorimetric assay; assay type: cell-based; conditions: Leishmania mexicana, 48 h exposure, 1% DMSO
Experimental: Leishmanicidal activities of all Schiff bases were evaluated by measuring promastigote mitochondrial activity using MTT colorimetric assay as described previously. […] The medium was renewed every four days. Parasite density was determined in a Neubauer chamber.
Into each well of a 96-well cell culture dish was dispensed 1 × 10^6 parasites. A stock solution of each of the Schiff Base was prepared in DMSO, and serial dilutions were added to the parasite suspension, keeping the solvent concentration at 1%. The final volume was 100 µL for each well and triplicate conditions were carried out. Pentamidine treatment (100 µg/mL) and untreated parasites were used as positive control and negative control, respectively. After exposure to the compounds for 48 h in culture medium, 10 µL of a solution of 5 mg/mL MTT dissolved in PBS was added to each well. […] Later, the plate was centrifuged at 4400 rpm for 10 min and the culture medium was then aspirated. Next, 100 µL of DMSO were added into each well to solubilize the formazan and the plate was shaken for 5 min. The colored formazan salt was measured by recording changes in absorbance at 570 nm using a microplate reader, a BioTek Synergy HT spectrophotometer. A reference wavelength of 630 nm was used to subtract background. Optical densities were analyzed as the quantity of formazan is directly proportional to the number of viable parasites. Data were analyzed with the statistical software GraphPad Prism.

[2] = carcinogenicity group; ref IARC; cited from earlier work
[3] = test system: Enterococcus faecalis ATCC 29212; experiment: antimicrobial serial microdilution, E. faecalis; assay type: cell-based; conditions: serial microdilution, 37 °C, 24 h
Experimental: (§1) The in vitro antifungal and antimicrobial activities were determined by testing the Schiff bases against the fungi Saccharomyces cerevisiae, Candida albicans, and Aspergillus niger and the bacteria Staphylococcus aureus, Enterococcus faecalis (Gram-positive), Pseudomonas aeruginosa, and Escherichia coli (Gram-negative).
(§2) The bacterial inoculum was prepared by emulsifying overnight colonies from an agar medium in broth (Mueller–Hinton broth). The suspensions were adjusted to a final organism density of 5 × 10^5 colony former units (cfu)/mL. […] The emulsifying of A. niger cultures was done by pouring 5 mL of saline and 0.1% of polysorbate 80 over the Petri dishes. Then, 100 µL of this suspension were diluted in 5 mL of saline and adjusted to an optical density of 0.1 at 530 nm. For S. cerevisiae, fresh exponential YPAD (yeast extract 1%, peptone 2%, adenine 0.004%, […]) cultures were adjusted to an optical density of 0.5 at 600 nm, and then diluted to the equivalent of 1 × 10^4 cells/mL (10^−3 dilution). Stock solutions of Schiff bases were prepared by dissolving them in DMSO at 10 mg/mL. […] The range of concentrations used was empirically selected for each organisms and the Schiff base. Drug sensitivities were assayed by serial dilutions in 96-well plates as previously described. A row with media and cells but without drug was the positive control. The blank was done by preparing a row with media and drugs, but without cells. Plates were fitted with a tight lid before incubation to prevent desiccation. […] The minimum bactericidal concentration (MBC) and fungicidal concentration (MFC) were determined by spreading 100 µL of culture from each well onto a plate (Mueller–Hinton agar for bacteria, Sabouraud dextrose agar for fungi except S. cerevisiae, and YPAD for S. cerevisiae).

[4] = test system: Staphylococcus aureus ATCC 29213; experiment: antimicrobial serial microdilution, S. aureus; assay type: cell-based; conditions: serial microdilution, 37 °C, 24 h
Experimental: as §1, §2

[5] = test system: Escherichia coli ATCC 25922; experiment: antimicrobial serial microdilution, E. coli; assay type: cell-based; conditions: serial microdilution, 37 °C, 24 h
Experimental: as §1, §2

P. aeruginosa ATCC 27853 = experiment: antimicrobial serial microdilution, P. aeruginosa; assay type: cell-based; conditions: Pseudomonas aeruginosa, ATCC27853, 37 °C, 24 h
Experimental: as §1, §2

[6] = test system: Aspergillus niger ATCC 6275; experiment: antimicrobial serial microdilution, A. niger; assay type: cell-based; conditions: serial microdilution, 35 °C, 48 h; for MIC: 96-well plates, max 2% DMSO
Experimental: as §1, §2

[7] = test system: Candida albicans ATCC 10231; experiment: antimicrobial serial microdilution, C. albicans; assay type: cell-based; conditions: serial microdilution, 35 °C, 48 h
Experimental: as §1, §2

[8] = test system: S. cerevisiae (backgrounds W303 and BY4741); experiment: antimicrobial serial microdilution, S. cerevisiae; assay type: cell-based, Saccharomyces cerevisiae; conditions: 48 h; for MIC / IC50: Saccharomyces cerevisiae; for MIC: read-out: MIC S. cerevisiae; for NIC S. cerevisiae: noninhibitory concentration
Experimental: as §1, §2

[9] = DPPH radical scavenging assay; assay type: biochemical; conditions: 30 min, room temperature, dark, absorbance 515 nm
Experimental: This was used immediately. The experimental procedure was adapted from the literature. Briefly, in a 96-well plate, 100 µL of solution of DPPH (2, 2-diphenyl-1-picrylhydrazyl) radical (0.2 mM in methanol) was added to 100 µL of methanolic solutions of 3a–j, 4, or 5, prepared as serial two-fold dilutions from the stock solution. Standards were also prepared in the same concentrations.
The percentage of DPPH scavenging was then calculated by using the following formula: % DPPH scavenging=100∗Asample+DPPH−Asample blank/ADPPH−Asolvent

RAW 264.7 cells = experiment: cell viability, MTT dye assay; assay type: cell-based, murine; conditions: 48 h
Experimental: The specificity and selectivity for the pathogen target is a key point for any potential drug.
The medium was renewed once a week. The viability was determined using MTT (thiazolyl blue tetrazolium bromide) dye assay as described previously for leishmanicidal activity assessment, with some variations. Here, 5 × 10^4 cells/well in a final volume of 100 µL were deposited into a 96-well plate in triplicate. Saponin (2 and 4 mg/mL) and untreated cells were used as the positive control and negative control, respectively. Schiff bases were dissolved in DMSO to obtain different serial concentrations (0.01–2000 µM). […] Cells were pelleted by centrifugation at 4400 rpm for 10 minutes and the media was removed. Next, 100 µL/well of DMSO were added and the absorbance at 570 nm was recorded. A reference wavelength of 630 nm was used for background subtraction.

[10] = Enterococcus faecalis, ATCC29212
[11] = Staphylococcus aureus, ATCC29213

SMILES | IC50 [1] | IARC: group of classification of IARC [2] | MIC [3, 10] | MIC [4, 11] | MIC ([5]; Escherichia coli, ATCC25922) | MIC (P. aeruginosa ATCC 27853) | MIC ([6]; Aspergillus niger, ATCC6275) | MIC ([7]; Candida albicans, ATCC10231) | IC50 [9] | also measured
C[C@@H]1[C@H](O)[C@@H](C)/C=C/C=C/C=C/C=C/C=C/C=C/C=C/[C@H](O[C@@H]2O[C@H](C)[C@@H](O)[C@H](N)[C@@H]2O)C[C@@H]2O[C@](O)(C[C@@H](O)C[C@@H](O)[C@H](O)CC[C@@H](O)C[C@@H](O)CC(=O)O[C@H]1C)C[C@H](O)[C@H]2C(=O)O [AP, amphotericin, reference compound] | 0.18 ± 0.07 µM |  |  |  |  |  |  |  |  | 
N.N.[Cl][Pt][Cl] [Cisplatin] |  | 2A |  |  |  |  |  |  |  | 
O=C(O)c1cn(C2CC2)c2cc(N3CCNCC3)c(F)cc2c1=O [CP, ciprofloxacin, reference compound] |  |  | 1.15 ± 0.42 µg/mL (≈ 3.47 µM) | 0.44 ± 0.09 µg/mL (≈ 1.33 µM) | 0.15 ± 0.009 µg/mL (≈ 0.453 µM) | 0.47 ± 0.1 µg/mL (≈ 1.42 µM) |  |  |  | IC50 [3, 10]: 0.49 µg/mL (≈ 1.48 µM); NIC E. faecalis ([3]; noninhibitory concentration): 0.30 ± 0.07 µg/mL; IC50 [4, 11]: 0.1 µg/mL (≈ 0.302 µM); NIC S. aureus ([4]; noninhibitory concentration): 0.06 ± 0.02 µg/mL; IC50 ([5]; Escherichia coli, ATCC25922): 0.07 µg/mL (≈ 0.211 µM); NIC E. coli ([5]; noninhibitory concentration): 0.06 ± 0.003 µg/mL; IC50 (P. aeruginosa ATCC 27853): 0.94 µg/mL (≈ 2.84 µM)
COc1cc(C=Nc2c(C)n(C)n(-c3ccccc3)c2=O)cc(OC)c1O [Compound 3j, 4-(4-Hydroxy-3,5-dimethoxybenzylideneamino)-1,5-dimethyl-2-phenyl-1H-pyrazol-3(2H)-one] | > 200 µM |  | > 200 µg/mL | > 200 µg/mL | > 200 µg/mL | > 200 µg/mL | > 200 µg/mL | > 200 µg/mL | 15.7 ± 3.2 µM | MIC ([8]; serial microdilution, 35 °C): > 200 µg/mL; melting point: 259.2 to 260.7 °C
Cc1c(/N=C/c2ccco2)c(=O)n(-c2ccccc2)n1C [Compound 4, 4-(2-furfurilideneamino)-1,5-dimethyl-2-phenyl-1H-pyrazol-3(2H)-one] | > 200 µM |  | > 200 µg/mL | > 200 µg/mL | > 200 µg/mL | > 200 µg/mL | > 200 µg/mL | > 200 µg/mL | > 200 µM | MIC ([8]; serial microdilution, 35 °C): > 200 µg/mL; % Live Cells (RAW 264.7 cells; RAW 264.7, exposure to 400 µM): 23.8 ± 3.4%
CN[C@@H]1[C@@H](O)[C@@H](O[C@@H]2[C@@H](O)[C@H](O[C@H]3O[C@H]([C@@H](C)O)[C@@H](O)[C@H](O)[C@H]3N)[C@@H](N)C[C@H]2N)OC[C@]1(C)O [GN, geneticin, reference compound] |  |  |  |  |  |  |  |  |  | IC50 ([8]; read-out: IC50 S. cerevisiae): 59.9 µg/mL (≈ 121 µM); MIC [8]: 93.7 ± 0.9 µg/mL (≈ 189 µM); NIC S. cerevisiae ([8]; serial microdilution, 35 °C): 44.5 ± 1.7 µg/mL
COc1cc([C@@H]2c3cc4c(cc3[C@@H](O[C@@H]3O[C@@H]5CO[C@@H](C)O[C@H]5[C@H](O)[C@H]3O)[C@H]3COC(=O)[C@H]23)OCO4)cc(OC)c1O [Etoposide] |  | 1 |  |  |  |  |  |  |  | 
CN(Cc1cnc2nc(N)nc(N)c2n1)c1ccc(C(=O)N[C@@H](CCC(=O)O)C(=O)O)cc1 [Methotrexate] |  | 3 |  |  |  |  |  |  |  | 
C[C@@H](c1ncncc1F)[C@](O)(Cn1cncn1)c1ccc(F)cc1F [VR, voriconazole, reference compound] |  |  |  |  |  |  | 1.2 ± 0.05 µg/mL (≈ 3.44 µM) | 29.7 ± 3.52 µg/mL (≈ 85 µM) |  | IC50 ([6]; Aspergillus niger, ATCC6275): 0.2 µg/mL (≈ 0.573 µM); NIC A. niger ([6]; noninhibitory concentration): 0.05 ± 0.01 µg/mL; IC50 ([7]; Candida albicans, ATCC10231): 0.9 µg/mL (≈ 2.58 µM); NIC C. albicans ([7]; noninhibitory concentration): 0.00 ± 0.00 µg/mL
O=C(O)/C=C/c1ccc(O)c(O)c1 [caffeic acid, reference compound] |  |  |  |  |  |  |  |  | 16.2 ± 2.4 µM | 
O=c1c(O)c(-c2ccc(O)c(O)c2)oc2cc(O)cc(O)c12 [quercetin, reference compound] |  |  |  |  |  |  |  |  | 7.3 ± 1 µM | 
O=c1[nH]cc(F)c(=O)[nH]1 [Fluorouracil] |  | 3 |  |  |  |  |  |  |  | 
Cc1c(N)nc([C@H](CC(N)=O)NC[C@H](N)C(N)=O)nc1C(=O)N[C@H](C(=O)N[C@H](C)[C@@H](O)[C@H](C)C(=O)N[C@H](C(=O)NCCc1nc(-c2nc(C(=O)NCCC[S+](C)C)cs2)cs1)[C@@H](C)O)[C@@H](OC1OC(CO)C(O)C(O)C1OC1OC(CO)C(O)C(OC(N)=O)C1O)c1cnc[nH]1 (some centres unmarked) [Bleomycin] |  | 2B |  |  |  |  |  |  |  | 
O=C1O[C@H]([C@@H](O)CO)C(O)=C1O [ascorbic acid, reference compound] |  |  |  |  |  |  |  |  | 14.5 ± 2.2 µM | 
Cc1c(N=Cc2ccc(O)c(O)c2)c(=O)n(-c2ccccc2)n1C [Compound 3i, 4-(3,4-Dihydroxybenzylideneamino)-1,5-dimethyl-2-phenyl-1H-pyrazol-3(2H)-one] | > 200 µM |  | > 200 µg/mL | > 200 µg/mL | > 200 µg/mL | > 200 µg/mL | > 200 µg/mL | > 200 µg/mL | 18.9 ± 2.4 µM | MIC ([8]; serial microdilution, 35 °C): > 200 µg/mL; % Live Cells (RAW 264.7 cells; RAW 264.7, exposure to 400 µM): 34.4 ± 2.4%
N=C(N)c1ccc(OCCCCCOc2ccc(C(=N)N)cc2)cc1 [PT, pentamidine, reference compound] | 4.5 ± 0.46 µM |  |  |  |  |  |  |  |  | 
COc1ccc(C=Nc2c(C)n(C)n(-c3ccccc3)c2=O)cc1 [Compound 3c, 4-(4-Methoxybenzylideneamino)-1,5-dimethyl-2-phenyl-1H-pyrazol-3(2H)-one] | > 200 µM |  | > 200 µg/mL | > 200 µg/mL | > 200 µg/mL | > 200 µg/mL | > 200 µg/mL | > 200 µg/mL | > 200 µM | MIC ([8]; serial microdilution, 35 °C): > 200 µg/mL; % Live Cells (RAW 264.7 cells; RAW 264.7, exposure to 400 µM): 26.1 ± 1.9%
Cc1c(N=Cc2cccc([N+](=O)[O-])c2)c(=O)n(-c2ccccc2)n1C [Compound 3g, 4-(3-Nitrobenzylideneamino)-1,5-dimethyl-2-phenyl-1H-pyrazol-3(2H)-one] | > 200 µM |  | > 200 µg/mL | > 200 µg/mL | > 200 µg/mL | > 200 µg/mL | > 200 µg/mL | > 200 µg/mL | > 200 µM | IC50 ([8]; serial microdilution, 35 °C, read-out: IC50 S. cerevisiae (converted)): 105 µg/mL (≈ 312 µM); MIC ([8]; serial microdilution, 35 °C): 179 ± 59.5 µg/mL (≈ 533 µM); NIC S. cerevisiae ([8]; serial microdilution, 35 °C): 63.7 ± 8.7 µg/mL; % Live Cells (RAW 264.7 cells; RAW 264.7, exposure to 300 µM (limited solubility)): 22.1 ± 0.6%
O=P1(N(CCCl)CCCl)NCCCO1 (centres unmarked) [Cyclophosphamide] |  | 1 |  |  |  |  |  |  |  | 
